According to patent US12410141B2, “Anti-cancer spirocyclic-guanidine compounds and uses thereof” (The Johns Hopkins University, priority 2020, dated 2025):

How the values were obtained:
Neat solution stability = type: physicochemical; conditions: 10 μM, 37° C.
Method: (§1) Human and mouse liver microsomes and NADPH regenerating system solutions were purchased from Corning Life Sciences (Tewsbury, MA). Human and mouse K2EDTA was purchased from BioIVT (Westbury, NY). Metabolic studies in liver microsomes (0.125 mg/mL) were conducted in 1× phosphate buffered saline (pH 7.4), NADPH-generating system, and 10 μM of RA475 in a final volume of 250 μl. An incubation mixture with and without NADPH-generating system as well as a neat solution without microsomes and NADPH-generating system were prepared. RA475 was added at the same concentration level into human and mouse EDTA plasma. All reactions were initiated with the addition of RA475. Incubations were performed in glass tubes maintained at 37° C. in a shaker bath. At 0, 30, and 60 minutes, 10 μL aliquots were sampled from the reaction mixture and 0.5 mL of acetonitrile containing internal standard (Up284) was added to each samples. Samples were vortex-mixed and underwent centrifugation for 5 min at 1430×g. A 10 μL aliquot of the supernatant was injected onto the LC-MS instrument for qualitative analysis using a temperature-controlled autosampling device operating at 5° C. Chromatographic analysis was performed using a Waters Acquity™ Ultra Performance LC. […] The mobile phase used for the chromatographic separation was composed of water (mobile phase A) and acetonitrile (mobile phase B) containing 0.1% (v/v) formic acid with a flow rate of 0.3 mL/min. The initial mobile phase composition was 80% mobile phase A and 20% mobile phase B. From 0.5 to 1 min, mobile phase B was increased linearly from 20% to 100%. From 1 to 3 min, mobile phase B was maintained at 100%. From 3.0 to 3.1 min, the gradient decreased to 20% mobile phase B and the conditions were maintained until 4.1 min to re-equilibrate the column for the next injection. The column effluent was monitored using an AB Sciex 5500 triple quadrupole mass spectrometer. The instrument was equipped with an electrospray interface, operated in a positive mode and controlled by the Analyst v1.6 software. For the stability study, the mass spectrometer was programmed to monitor the following MRM transition 408.2→366.1 for RA475 and 366.2→155.8 for UP284 (internal standard). Results were assessed qualitatively comparing the average area ratio of RA475 at 0 hr to area ratio at 30 and 60 minutes for both mouse and human liver microsomes. RA475 was not analyzed for metabolites due to the concentration of RA475 not decreasing.

[1] = Plasma stability, mouse EDTA plasma; type: in vitro ADME; conditions: 37° C.
Method: as §1

[2] = Plasma stability, human EDTA plasma; type: in vitro ADME; conditions: 37° C.
Method: as §1

[3] = Microsomal stability, mouse liver microsomes; type: in vitro ADME
Method: as §1

[4] = Microsomal stability, human liver microsomes; type: in vitro ADME; conditions: for % Drug Remaining: Human Liver Microsomes
Method: as §1

[5] = test system: ES2 cells stably expressing 4UbFL; assay: In vitro 4UbFL assay, ES2 cells; type: cell-based; conditions: ES2-4UbFL cells, two-fold dilution series, 4 hr
Method: Sub-confluent cultures of ES2 cells stably expressing 4UbFL were seeded at 10,000 cells/well in 96-well microtiter plates. At 18 hr post transfection, cells were treated with compounds or vehicle (DMSO) at the doses indicated. After a 4 hr incubation, the cells were lysed and the luciferase activity in each cell lysate was determined with a luciferase assay kit (Promega) according to the manufacturer's instructions. Bioluminescence was measured by using a luminometer (Glomax Multidetection system, Promega).
To measure RA475 on-target activity in live cells, the inventors used an expression vector for the reporter gene 4UbFL in which the gene for firefly luciferase (FL) is inserted in-frame 3′ to four copies of ubiquitin (PMID: 12819780). […] Proteasome inhibition stabilizes 4UbFL and thus increases the bioluminescence signal upon addition of luciferin substrate, and this can be measured by a luminometer (for cells) or visualized by IVIS imaging (for mice).
ES2 cells stably transfected with 4UbFL expression plasmid (ES2-4UbFL) were plated in a 96 well microtiter plate and 18 hr later treated with DMSO only as a negative control, or two-fold dilution series of either Up284 or RA475. After 4 hr medium was removed and the cells were lysed using luciferase lysis buffer and bioluminescence was measured using a luminometer after the addition of luciferin substrate.

[6] = test system: 4UbFL reporter in leg muscle of CD-1 mice; assay: On-target activity in vivo using 4UbFL; set-up: species or system mouse; conditions: 40 mg/Kg single i.p. dose
Method: A patch was shaved of hair on one leg of CD-1 mice, and 10 μg 4UbFL plasmid in 20 μL of PBS was injected into the quadriceps femoralis muscle followed immediately by injection of the 2 Needle Array to 5 mm depth encompassing the injection site and square wave electroporation (ElectroSquarePorator 833, BTX-2 Needle array 5 mm gap, Harvard apparatus) delivered as eight pulses at 106V for 20 ms with 200 ms intervals. One day post electroporation, mice were anesthetized with isoflurane, injected i.p. with luciferin (0.3 mg in 100 μL water) and optical imaging was performed to determine basal level luciferase expression. Images were acquired for 10 min with a Xenogen IVIS 200 (Caliper, Hopkinton, MA). Equally sized areas were analyzed using Living Image 2.20 software. Mice were imaged weekly during treatment. Mice were randomized into three groups (n=5) and treated i.p. once with Vehicle (25% (w/v) β-Hydroxypropylcyclodextrin in water, Sigma Aldrich), RA475 (40 mg/Kg) and Up284 (40 mg/Kg) and mice were imaged again at 4 hr, 24 hr, 48 hr, 72 hr and 96 hr later.
To assess on-target activity in vivo, 4UbFL plasmid was injected into the muscle of one leg of CD-1 mice followed by electroporation. Luciferin was injected i.p. 24 hr later and the mice were tagged and imaged using an IVIS200 to visualize their basal bioluminescence. The mice were then immediately randomized to 3 groups and treated with vehicle alone (25% β-hydroxypropylcyclodextrin-water solution), RA475 (40 mg/Kg) and Up284 (40 mg/Kg) administered as a single i.p. dose. To examine the on-target activity, the mice were imaged again at 4 hr, 24 hr, 48 hr, 72 hr and 96 hr later.

Question: With Cl.Cl.N#Cc1ccc(/C=C2/C(=O)/C(=C/c3ccc(C#N)cc3)C23CCN(C(=N)N)CC3)cc1 [RA475] as the compound, how does the “% Drug Remaining” value (Neat solution stability; 0 minutes) read?
Answer: 100%

Question: And the “% Drug Remaining” value (Neat solution stability; 30 minutes)?
Answer: 108%

Question: What about the “% Drug Remaining” value (Neat solution stability; 60 minutes) of the same compound?
Answer: 111%

Question: What about the “% Drug Remaining” value ([1]; 0 minutes) of the same compound?
Answer: 100%

Question: And the “% Drug Remaining” value ([1]; 30 minutes)?
Answer: 109%

Question: What about the “% Drug Remaining” value ([1]; 60 minutes) of the same compound?
Answer: 109%

Question: And the “% Drug Remaining” value ([2]; 0 minutes)?
Answer: 100%

Question: And the “% Drug Remaining” value ([2]; 30 minutes)?
Answer: 108%

Question: And the “% Drug Remaining” value ([2]; 60 minutes)?
Answer: 107%

Question: What about the “% Drug Remaining” value ([3]; NADPH Neg, 0 minutes) of the same compound?
Answer: 100%

Question: What about the “% Drug Remaining” value ([3]; NADPH Neg, 30 minutes) of the same compound?
Answer: 90%

Question: And the “% Drug Remaining” value ([3]; NADPH Neg, 60 minutes)?
Answer: 108%

Question: What about the “% Drug Remaining” value ([3]; NADPH Pos, 0 minutes) of the same compound?
Answer: 100%

Question: What about the “% Drug Remaining” value ([3]; NADPH Pos, 30 minutes) of the same compound?
Answer: 93%

Question: What about the “% Drug Remaining” value ([3]; NADPH Pos, 60 minutes) of the same compound?
Answer: 98%

Question: And the “% Drug Remaining” value ([4]; NADPH Neg, 0 minutes)?
Answer: 100%

Question: What about the “% Drug Remaining” value ([4]; NADPH Neg, 30 minutes) of the same compound?
Answer: 99%

Question: And the “% Drug Remaining” value ([4]; NADPH Neg, 60 minutes)?
Answer: 93%

Question: What about the “% Drug Remaining” value ([4]; NADPH Pos, 0 minutes) of the same compound?
Answer: 100%

Question: And the “% Drug Remaining” value ([4]; NADPH Pos, 30 minutes)?
Answer: 112%

Question: And the “% Drug Remaining” value ([4]; NADPH Pos, 60 minutes)?
Answer: 102%

Question: And the “maximal decrease of area ratio” value ([4]; human liver microsomes lacking NADPH regeneration solution)?
Answer: 7%

Question: What about the “bioluminescent signal of 4UbFL reporter” value [5] of the same compound?
Answer: significantly increased

Question: What about the “increase in bioluminescence at the site of electroporation over baseline” value (from here on “increase in bioluminescence at the site”) ([6]; 4 hr after administration) of the same compound?
Answer: 24 fold

Question: What about the “increase in bioluminescence at the site” value ([6]; 24 hr after administration) of the same compound?
Answer: 6 fold

Question: With N#Cc1ccc(/C=C2/C(=O)/C(=C/c3ccc(C#N)cc3)C23CCNCC3)cc1 [Up284, reference compound] as the compound, how does the “% Drug Remaining” value (Neat solution stability; 0 minutes) read?
Answer: 100%

Question: What about the “% Drug Remaining” value (Neat solution stability; 30 minutes) of the same compound?
Answer: 86%

Question: What about the “% Drug Remaining” value (Neat solution stability; 60 minutes) of the same compound?
Answer: 78%

Question: And the “% Drug Remaining” value ([1]; 0 minutes)?
Answer: 100%

Question: What about the “% Drug Remaining” value ([1]; 30 minutes) of the same compound?
Answer: 84%

Question: What about the “% Drug Remaining” value ([1]; 60 minutes) of the same compound?
Answer: 94%

Question: And the “% Drug Remaining” value ([2]; 0 minutes)?
Answer: 100%

Question: And the “% Drug Remaining” value ([2]; 30 minutes)?
Answer: 100%

Question: And the “% Drug Remaining” value ([2]; 60 minutes)?
Answer: 90%

Question: What about the “% Drug Remaining” value ([3]; NADPH Neg, 0 minutes) of the same compound?
Answer: 100%

Question: What about the “% Drug Remaining” value ([3]; NADPH Neg, 30 minutes) of the same compound?
Answer: 60%

Question: What about the “% Drug Remaining” value ([3]; NADPH Neg, 60 minutes) of the same compound?
Answer: 51%

Question: What about the “% Drug Remaining” value ([3]; NADPH Pos, 0 minutes) of the same compound?
Answer: 100%

Question: And the “% Drug Remaining” value ([3]; NADPH Pos, 30 minutes)?
Answer: 45%

Question: And the “% Drug Remaining” value ([3]; NADPH Pos, 60 minutes)?
Answer: 38%

Question: What about the “% Drug Remaining” value ([4]; NADPH Neg, 0 minutes) of the same compound?
Answer: 100%

Question: And the “% Drug Remaining” value ([4]; NADPH Neg, 30 minutes)?
Answer: 57%

Question: And the “% Drug Remaining” value ([4]; NADPH Neg, 60 minutes)?
Answer: 52%

Question: And the “% Drug Remaining” value ([4]; NADPH Pos, 0 minutes)?
Answer: 100%

Question: What about the “% Drug Remaining” value ([4]; NADPH Pos, 30 minutes) of the same compound?
Answer: 43%

Question: And the “% Drug Remaining” value ([4]; NADPH Pos, 60 minutes)?
Answer: 43%

Question: What about the “bioluminescent signal of 4UbFL reporter” value [5] of the same compound?
Answer: significantly increased

Question: And the “increase in bioluminescence at the site” value ([6]; 24 hr after administration)?
Answer: ~3 fold
